Source: ChEMBL document CHEMBL1201862, “PubChem BioAssay data set” (2004)
Active and inactive are the calls of the source.

Legend:
Format in all cases: functional
[1] = target: DNA dC->dU-editing enzyme APOBEC-3A (Homo sapiens, UniProt P31941); assay: SAR analysis of small molecule inhibitors of APOBEC3A DNA Deaminase via a fluorescence-based single-stranded DNA deaminase assay - Set 2.; conditions: read-out: IC50_Mean
[2] = target: DNA dC->dU-editing enzyme APOBEC-3G (Homo sapiens, UniProt Q9HC16); assay: SAR analysis of small molecule inhibitors of APOBEC3G DNA Deaminase via a fluorescence-based single-stranded DNA deaminase assay - Set 2.; conditions: read-out: IC50_Mean
[3] = target: Dual specificity protein kinase CLK2 (Homo sapiens, UniProt P49760)
[4] = target: Serine/threonine-protein kinase D3 (Homo sapiens, UniProt O94806);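 note: determined within a kinase panel screen, with PRKCN as the panel member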
Chain of Serine/threonine-protein kinase D3 (O94806 whole entry): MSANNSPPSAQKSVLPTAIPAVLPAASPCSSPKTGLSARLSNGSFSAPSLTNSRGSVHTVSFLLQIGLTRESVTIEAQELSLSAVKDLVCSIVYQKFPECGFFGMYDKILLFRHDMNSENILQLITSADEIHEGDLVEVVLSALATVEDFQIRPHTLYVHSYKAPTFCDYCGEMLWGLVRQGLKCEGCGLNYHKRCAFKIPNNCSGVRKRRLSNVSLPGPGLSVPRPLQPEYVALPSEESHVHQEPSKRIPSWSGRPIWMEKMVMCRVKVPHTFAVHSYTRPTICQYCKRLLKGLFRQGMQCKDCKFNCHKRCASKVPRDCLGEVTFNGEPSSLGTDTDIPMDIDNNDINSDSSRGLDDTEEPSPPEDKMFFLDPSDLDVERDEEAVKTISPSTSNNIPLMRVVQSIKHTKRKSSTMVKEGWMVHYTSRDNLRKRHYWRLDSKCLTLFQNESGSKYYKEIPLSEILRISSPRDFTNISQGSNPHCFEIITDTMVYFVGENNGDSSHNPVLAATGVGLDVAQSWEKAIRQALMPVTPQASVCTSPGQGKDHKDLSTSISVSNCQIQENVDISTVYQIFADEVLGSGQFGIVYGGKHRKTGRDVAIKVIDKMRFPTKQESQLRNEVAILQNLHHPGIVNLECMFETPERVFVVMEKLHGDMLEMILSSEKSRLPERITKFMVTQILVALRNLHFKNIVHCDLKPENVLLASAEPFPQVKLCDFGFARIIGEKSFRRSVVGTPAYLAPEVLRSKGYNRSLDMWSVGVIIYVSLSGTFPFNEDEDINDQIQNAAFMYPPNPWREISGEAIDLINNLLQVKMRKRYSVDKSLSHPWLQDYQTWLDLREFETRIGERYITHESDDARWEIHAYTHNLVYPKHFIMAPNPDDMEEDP

Activin receptor type-1 = Activin receptor type-1 (Homo sapiens, UniProt Q04771); assay: Navigating the Kinome. Panel member name: ACVR1
Chain of Activin receptor type-1 (Q04771 whole entry): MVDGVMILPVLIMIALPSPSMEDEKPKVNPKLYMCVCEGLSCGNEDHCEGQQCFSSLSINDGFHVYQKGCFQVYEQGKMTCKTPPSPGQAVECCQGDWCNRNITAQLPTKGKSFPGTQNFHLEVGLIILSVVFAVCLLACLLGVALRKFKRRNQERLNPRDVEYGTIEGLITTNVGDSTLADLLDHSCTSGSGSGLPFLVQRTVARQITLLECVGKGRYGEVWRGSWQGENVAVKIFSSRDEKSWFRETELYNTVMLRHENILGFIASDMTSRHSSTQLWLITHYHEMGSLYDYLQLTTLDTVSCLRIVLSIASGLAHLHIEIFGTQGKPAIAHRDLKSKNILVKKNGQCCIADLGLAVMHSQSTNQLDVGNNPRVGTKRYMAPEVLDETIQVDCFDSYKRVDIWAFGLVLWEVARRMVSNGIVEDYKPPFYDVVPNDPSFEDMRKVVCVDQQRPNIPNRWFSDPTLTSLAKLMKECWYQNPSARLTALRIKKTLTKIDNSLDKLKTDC

[5] = target: Serine/threonine-protein kinase PAK 4 (Homo sapiens, UniProt O96013);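 note: value obtained within a kinome profiling panel in which PAK4 was one of the panel members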
[6] = target: Fibroblast growth factor receptor 1 (Homo sapiens, UniProt P11362)
[7] = target: Casein kinase I isoform alpha (Homo sapiens, UniProt P48729)
[8] = target: Tyrosine-protein kinase JAK3 (Homo sapiens, UniProt P52333)
LIM domain kinase 1 = LIM domain kinase 1 (Homo sapiens, UniProt P53667); assay: Navigating the Kinome. Panel member name: LIMK1
Chain of LIM domain kinase 1 (P53667 whole entry, the tested form may be a part): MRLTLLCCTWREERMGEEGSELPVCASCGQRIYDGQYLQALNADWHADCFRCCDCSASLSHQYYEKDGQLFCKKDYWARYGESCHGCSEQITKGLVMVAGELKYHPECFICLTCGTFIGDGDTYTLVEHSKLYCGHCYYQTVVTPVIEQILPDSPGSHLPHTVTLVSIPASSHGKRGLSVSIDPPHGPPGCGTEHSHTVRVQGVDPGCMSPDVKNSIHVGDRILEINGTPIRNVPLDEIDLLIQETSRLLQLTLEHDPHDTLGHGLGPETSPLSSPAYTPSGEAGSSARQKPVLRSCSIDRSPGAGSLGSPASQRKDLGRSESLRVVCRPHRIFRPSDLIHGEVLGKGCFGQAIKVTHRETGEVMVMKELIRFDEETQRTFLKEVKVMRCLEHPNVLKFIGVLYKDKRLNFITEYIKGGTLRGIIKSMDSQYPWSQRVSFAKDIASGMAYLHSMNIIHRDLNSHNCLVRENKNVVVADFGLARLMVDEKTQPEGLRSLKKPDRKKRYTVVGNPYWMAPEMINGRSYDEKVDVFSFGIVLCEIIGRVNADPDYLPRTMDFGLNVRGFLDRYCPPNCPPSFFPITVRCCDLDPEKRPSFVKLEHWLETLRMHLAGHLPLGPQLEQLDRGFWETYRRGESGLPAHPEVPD

[9] = target: Glycogen synthase kinase-3 alpha (Homo sapiens, UniProt P49840);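 note: GSK3A result taken from a broad kinome-wide kinase panel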
[10] = target: G protein-coupled receptor kinase 5 (Homo sapiens, UniProt P34947); assay: Navigating the Kinome. Panel member name: GPRK5
[11] = target: Dual specificity tyrosine-phosphorylation-regulated kinase 1B (Homo sapiens, UniProt Q9Y463); assay: Navigating the Kinome. Panel member name: DYRK1B
Chain of Dual specificity tyrosine-phosphorylation-regulated kinase 1B (Q9Y463 whole entry): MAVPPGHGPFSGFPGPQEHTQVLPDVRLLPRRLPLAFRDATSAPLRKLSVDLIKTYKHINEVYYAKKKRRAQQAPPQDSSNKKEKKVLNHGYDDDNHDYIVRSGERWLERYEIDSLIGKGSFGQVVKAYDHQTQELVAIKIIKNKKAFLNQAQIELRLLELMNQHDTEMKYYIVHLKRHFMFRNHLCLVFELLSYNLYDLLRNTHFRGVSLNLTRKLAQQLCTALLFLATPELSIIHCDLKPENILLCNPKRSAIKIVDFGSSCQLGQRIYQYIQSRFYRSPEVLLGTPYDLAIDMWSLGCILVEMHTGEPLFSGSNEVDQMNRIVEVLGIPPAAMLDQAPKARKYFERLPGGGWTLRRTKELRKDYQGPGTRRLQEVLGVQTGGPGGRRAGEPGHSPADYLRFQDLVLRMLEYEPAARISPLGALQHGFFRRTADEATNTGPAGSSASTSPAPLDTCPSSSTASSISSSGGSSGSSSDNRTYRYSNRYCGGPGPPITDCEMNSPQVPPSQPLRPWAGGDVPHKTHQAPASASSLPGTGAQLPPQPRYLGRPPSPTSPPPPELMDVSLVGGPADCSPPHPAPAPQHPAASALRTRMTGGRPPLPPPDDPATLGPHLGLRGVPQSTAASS

Aurora kinase B = Aurora kinase B (Homo sapiens, UniProt Q96GD4)
Chain of Aurora kinase B (Q96GD4 whole entry): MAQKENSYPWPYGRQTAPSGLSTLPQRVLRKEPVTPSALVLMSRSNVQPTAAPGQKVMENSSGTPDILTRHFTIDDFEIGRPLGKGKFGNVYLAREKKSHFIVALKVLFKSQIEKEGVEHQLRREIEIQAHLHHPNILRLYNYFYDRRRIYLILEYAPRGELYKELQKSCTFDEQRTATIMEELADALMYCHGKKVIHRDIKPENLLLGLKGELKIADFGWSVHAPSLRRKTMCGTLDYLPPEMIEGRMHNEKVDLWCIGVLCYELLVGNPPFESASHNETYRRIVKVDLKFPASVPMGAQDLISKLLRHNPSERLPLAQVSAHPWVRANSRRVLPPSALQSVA

[12] = target: Cyclin-dependent kinase 7 (Homo sapiens, UniProt P50613);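 note: value comes from a kinome-wide kinase profiling panel in which CDK7 is one member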
Chain of Cyclin-dependent kinase 7 (P50613 whole entry): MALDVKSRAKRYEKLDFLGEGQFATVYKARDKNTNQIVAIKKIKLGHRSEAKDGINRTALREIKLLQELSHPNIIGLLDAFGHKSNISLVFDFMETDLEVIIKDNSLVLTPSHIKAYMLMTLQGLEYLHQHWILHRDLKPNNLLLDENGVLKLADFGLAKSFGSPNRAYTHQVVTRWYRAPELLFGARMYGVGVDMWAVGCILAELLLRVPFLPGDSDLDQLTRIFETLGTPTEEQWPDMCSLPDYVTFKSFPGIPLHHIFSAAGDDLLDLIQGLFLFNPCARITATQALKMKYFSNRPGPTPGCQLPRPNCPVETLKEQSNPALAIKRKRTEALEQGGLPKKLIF

[13] = target: Dual specificity protein kinase CLK4 (Homo sapiens, UniProt Q9HAZ1)
Chain of Dual specificity protein kinase CLK4 (Q9HAZ1 whole entry): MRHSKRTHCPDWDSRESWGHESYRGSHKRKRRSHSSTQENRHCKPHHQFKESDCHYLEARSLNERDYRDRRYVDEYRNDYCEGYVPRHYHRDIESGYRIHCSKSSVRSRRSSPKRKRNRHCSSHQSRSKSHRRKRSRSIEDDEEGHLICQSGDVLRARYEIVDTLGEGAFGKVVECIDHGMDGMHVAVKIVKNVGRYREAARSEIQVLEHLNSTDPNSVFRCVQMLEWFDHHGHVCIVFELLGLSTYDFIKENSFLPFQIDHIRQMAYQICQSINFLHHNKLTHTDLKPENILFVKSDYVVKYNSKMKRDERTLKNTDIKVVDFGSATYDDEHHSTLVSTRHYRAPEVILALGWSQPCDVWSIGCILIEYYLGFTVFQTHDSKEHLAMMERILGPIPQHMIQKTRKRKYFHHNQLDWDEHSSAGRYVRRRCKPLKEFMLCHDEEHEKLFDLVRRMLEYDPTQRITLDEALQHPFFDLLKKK

[14] = target: Dual specificity tyrosine-phosphorylation-regulated kinase 1A (Homo sapiens, UniProt Q13627);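 note: measured against DYRK1A as one member of a broad kinome profiling panel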
[15] = target: Calcium/calmodulin-dependent protein kinase type II subunit alpha (Homo sapiens, UniProt Q9UQM7); assay: Navigating the Kinome. Panel member name: CAMK2A
Chain of Calcium/calmodulin-dependent protein kinase type II subunit alpha (Q9UQM7 whole entry): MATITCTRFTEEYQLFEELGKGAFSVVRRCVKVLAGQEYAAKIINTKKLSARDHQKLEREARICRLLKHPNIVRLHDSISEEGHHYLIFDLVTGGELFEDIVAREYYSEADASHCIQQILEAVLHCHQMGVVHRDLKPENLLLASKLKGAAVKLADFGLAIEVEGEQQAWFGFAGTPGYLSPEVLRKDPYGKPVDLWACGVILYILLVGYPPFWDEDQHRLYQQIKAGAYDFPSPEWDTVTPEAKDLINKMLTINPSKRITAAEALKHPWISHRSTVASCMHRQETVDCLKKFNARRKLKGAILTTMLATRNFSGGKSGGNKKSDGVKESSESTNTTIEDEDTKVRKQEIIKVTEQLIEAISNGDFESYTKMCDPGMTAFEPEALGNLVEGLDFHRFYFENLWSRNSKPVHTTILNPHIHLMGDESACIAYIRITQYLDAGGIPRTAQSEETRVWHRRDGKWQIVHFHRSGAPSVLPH

[16] = target: Mitogen-activated protein kinase 14 (Homo sapiens, UniProt Q16539);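 note: part of a kinome-wide panel, MAPK14 entry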
Chain of Mitogen-activated protein kinase 14 (Q16539 whole entry): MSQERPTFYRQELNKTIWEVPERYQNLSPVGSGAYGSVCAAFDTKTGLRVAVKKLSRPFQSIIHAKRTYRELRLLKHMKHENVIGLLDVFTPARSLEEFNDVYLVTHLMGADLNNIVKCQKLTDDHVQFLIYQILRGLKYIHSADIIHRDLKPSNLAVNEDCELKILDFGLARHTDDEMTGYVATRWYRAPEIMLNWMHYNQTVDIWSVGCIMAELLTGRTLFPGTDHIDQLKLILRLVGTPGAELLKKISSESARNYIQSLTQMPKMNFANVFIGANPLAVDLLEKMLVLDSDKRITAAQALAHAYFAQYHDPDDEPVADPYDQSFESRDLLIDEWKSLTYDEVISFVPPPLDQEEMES

Chain of DNA dC->dU-editing enzyme APOBEC-3A (P31941 whole entry): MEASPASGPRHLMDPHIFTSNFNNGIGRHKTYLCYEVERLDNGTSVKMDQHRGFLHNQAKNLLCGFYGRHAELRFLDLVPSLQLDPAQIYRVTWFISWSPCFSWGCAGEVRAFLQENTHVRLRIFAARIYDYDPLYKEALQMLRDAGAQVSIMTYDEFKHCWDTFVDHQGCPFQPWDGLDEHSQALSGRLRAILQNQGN

| Structure (SMILES) | IC50 [1] | IC50 [2] | Ki [3] | Ki [4] | Ki (Activin receptor type-1) | Ki [5] | Ki [6] | Ki [7] | Ki [8] | Ki (LIM domain kinase 1) | Ki [9] | Ki [10] | Ki [11] | Ki (Aurora kinase B) | Ki [12] | Ki [13] | Ki [14] | Ki [15] | Ki [16] |
| --- | --- | --- | --- | --- | --- | --- | --- | --- | --- | --- | --- | --- | --- | --- | --- | --- | --- | --- | --- |
| CCc1nc2sc3c(c2c2nnc(SC)n12)CCC(C)C3 (centres undefined) | > 99 µM (inactive) | > 99 µM (inactive) |  |  |  |  |  |  |  |  |  |  |  |  |  |  |  |  |  |
| Nc1ncnc2nc3ccccc3n12 |  |  | 39.8 µM (active) | > 79.4 µM (inactive) | > 79.4 µM (inactive) | > 100 µM (inactive) | > 79.4 µM (inactive) | 20 µM (active) | > 100 µM (inactive) | 63.1 µM (active) | > 79.4 µM (inactive) | > 79.4 µM (inactive) | 20 µM (active) | > 79.4 µM (inactive) | > 79.4 µM (inactive) | 7.94 µM (active) | 39.8 µM (active) | > 79.4 µM (inactive) | > 79.4 µM (inactive) |
